According to ChEMBL document CHEMBL4043256, “Discovery of N-substituted 7-azaindoles as PIM1 kinase inhibitors - Part I” (Bioorg Med Chem Lett, 2017):

How the values were obtained:
[1] = target: Serine/threonine-protein kinase pim-2 (Homo sapiens, UniProt Q9P1W9); assay: Inhibition of PIM2 (unknown origin) assessed as reduction in full length human BAD phosphorylation at Ser112 residues by TR-FRET assay
[2] = target: Serine/threonine-protein kinase pim-3 (Homo sapiens, UniProt Q86V86); assay: Inhibition of PIM3 (unknown origin) assessed as reduction in full length human BAD phosphorylation at Ser112 residues by TR-FRET assay
[3] = target: Cell division cycle 7-related protein kinase (Homo sapiens, UniProt O00311); assay: Inhibition of CDC7 (unknown origin)
Chain of Cell division cycle 7-related protein kinase (O00311 whole entry): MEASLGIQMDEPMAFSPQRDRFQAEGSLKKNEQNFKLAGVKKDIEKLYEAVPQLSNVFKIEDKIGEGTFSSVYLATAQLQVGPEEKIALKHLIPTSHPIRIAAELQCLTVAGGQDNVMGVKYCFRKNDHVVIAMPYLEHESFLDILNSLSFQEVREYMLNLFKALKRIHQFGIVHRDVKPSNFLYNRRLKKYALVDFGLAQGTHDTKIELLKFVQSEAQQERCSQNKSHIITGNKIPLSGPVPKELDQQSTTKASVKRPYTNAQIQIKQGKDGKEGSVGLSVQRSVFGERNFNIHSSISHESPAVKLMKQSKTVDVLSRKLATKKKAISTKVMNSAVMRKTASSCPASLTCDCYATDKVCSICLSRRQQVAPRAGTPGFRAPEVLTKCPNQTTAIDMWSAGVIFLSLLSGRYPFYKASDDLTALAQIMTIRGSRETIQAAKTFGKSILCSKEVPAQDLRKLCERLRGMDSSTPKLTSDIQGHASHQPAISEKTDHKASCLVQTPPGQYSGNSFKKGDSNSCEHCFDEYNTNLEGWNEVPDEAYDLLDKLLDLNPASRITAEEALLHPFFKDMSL

[4] = target: Cyclin-dependent kinase 9 (Homo sapiens, UniProt P50750)
Chain of Cyclin-dependent kinase 9 (P50750 whole entry): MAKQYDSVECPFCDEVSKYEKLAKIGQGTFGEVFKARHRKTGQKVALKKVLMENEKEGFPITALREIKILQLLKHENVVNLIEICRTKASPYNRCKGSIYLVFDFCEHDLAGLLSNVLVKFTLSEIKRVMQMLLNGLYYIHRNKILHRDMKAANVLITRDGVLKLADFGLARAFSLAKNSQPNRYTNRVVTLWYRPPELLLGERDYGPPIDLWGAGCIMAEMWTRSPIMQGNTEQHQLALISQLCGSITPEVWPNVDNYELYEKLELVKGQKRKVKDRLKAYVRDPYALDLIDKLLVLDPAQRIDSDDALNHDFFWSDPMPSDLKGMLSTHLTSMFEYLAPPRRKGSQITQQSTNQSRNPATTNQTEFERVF

Chain of Serine/threonine-protein kinase pim-2 (Q9P1W9 whole entry): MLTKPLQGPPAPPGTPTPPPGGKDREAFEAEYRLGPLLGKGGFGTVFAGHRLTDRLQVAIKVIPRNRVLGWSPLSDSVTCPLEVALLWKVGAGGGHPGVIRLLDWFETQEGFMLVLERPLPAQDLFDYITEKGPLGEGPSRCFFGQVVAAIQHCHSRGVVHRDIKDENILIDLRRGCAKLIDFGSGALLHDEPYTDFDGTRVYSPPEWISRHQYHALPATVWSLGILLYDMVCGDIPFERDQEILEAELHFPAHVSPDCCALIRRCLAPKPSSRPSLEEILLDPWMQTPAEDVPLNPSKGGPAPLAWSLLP

Compound	IC50 [1] [nM]	IC50 [2] [nM]	IC50 [3] [nM]	IC50 [4] [nM]
CN(C)Cc1ccc(-c2c(-c3ccc(N4CCN(C)CC4)cc3)n(C)c3nccc(Cl)c23)cc1	3300	1400		
Cn1c(-c2ccc(N3CCNCC3)cc2)c(-c2ccc(CO)cc2)c2c(Cl)ccnc21	13800	10600		
Cc1c(-c2ccc(N3CCNCC3)cc2)n(C)c2nc(C(N)=O)cc(Cl)c12	1270	290		
Clc1ccnc2[nH]c(-c3ccc(N4CCNCC4)cc3)cc12			40	20

Second part, the molecule after the results:

IC50 [1] [nM]	IC50 [2] [nM]	IC50 [3] [nM]	IC50 [4] [nM]	Compound
> 30000	400			CN1CCN(c2ccc(-c3cc4c(Cl)cc(C(N)=O)nc4n3C)cc2)CC1
> 30000				CN(C)Cc1ccc(-c2c(-c3ccc(N4CCNCC4)cc3)n(C)c3nc(C(N)=O)cc(Cl)c23)cc1
872	492			CN1CCC(NC(=O)c2ccc(-c3c(-c4ccc(N5CCN(C)CC5)cc4)n(C)c4nccc(Cl)c34)cc2)CC1
